Laboratory results as given in patent US20240287138A1, “CYCLIC PEPTIDES FOR INHIBITING TNF RECEPTOR 1 ACTIVITY” (Merck Sharp & Dohme LLC, priority 2023, published 2024).
pIC50, pKd: −log10 of the molar value. Numbered stars: 1 amine (or outer) side, 2 acyl side, 3 side chain; on linkers, the order of the positions; unused ones are H or OH. Bridge positions count the residues as written; N and C are the ends. Square brackets hold non-standard residues; d marks the D form. Peptide text beside a SMILES is read from it. * marks the point of attachment. Trp(βS-Me,7-OMe) = COc1cccc2c([C@H](C)[C@H](N)C(=O)O)c[nH]c12; Trp(7-CN) = N#Cc1cccc2c(C[C@H](N)C(=O)O)c[nH]c12; Trp(7-Cl) = N[C@@H](Cc1c[nH]c2c(Cl)cccc12)C(=O)O; X29 = NC(=O)Cc1cccc(C[C@H](N[*:1])C(=O)[*:2])c1; Phe(4-CONH2) = NC(=O)c1ccc(C[C@H](N)C(=O)O)cc1; Phe(4-COOH) = N[C@@H](Cc1ccc(C(=O)O)cc1)C(=O)O; Trp(7-aza) = N[C@@H](Cc1c[nH]c2ncccc12)C(=O)O; X3 = C[C@H](c1ccncc1)[C@H](N[*:1])C(=O)[*:2]; dPro(4S-NH2) = N[C@@H]1CN[C@@H](C(=O)O)C1; Pip(5R-OH) = O=C(O)[C@@H]1CC[C@@H](O)CN1; X1 = O=C([C@@H]1CC[C@H](N[*:1])C1)[*:2]; Pip(4-aza) = O=C(O)[C@@H]1CNCCN1; 4Pal = N[C@@H](Cc1ccncc1)C(=O)O; NMeE = CN[C@@H](CCC(=O)O)C(=O)O; dHyp = O=C(O)[C@H]1C[C@H](O)CN1; αMeS = C[C@](N)(CO)C(=O)O; Nle = CCCC[C@H](N)C(=O)O; Ethyl(2-NH2) = NCC*; Sar = CNCC(=O)O; X22 = C1CC1C*

Columns and labels:
[1] = molecular target: T1, human TNFR1 extracellular domain (ECD) protein (Homo sapiens, UniProt P19438); experiment: SPR binding affinity to captured human TNFR1 ECD
T1 construct: HRV 3C protease cleavage site (C); 6His (C, cleaved yes); made in house; host or cells: Sf21 insect cells (baculovirus), secreted
T1 sequence (P19438 30-211): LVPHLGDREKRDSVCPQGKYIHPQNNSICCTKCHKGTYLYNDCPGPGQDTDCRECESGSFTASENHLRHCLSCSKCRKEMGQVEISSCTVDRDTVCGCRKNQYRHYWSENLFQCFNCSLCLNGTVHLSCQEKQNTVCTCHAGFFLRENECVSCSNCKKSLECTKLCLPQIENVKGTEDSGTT
Outline: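 Biotinylated human TNFR1 or TNFR2 ECD (C-terminal Avi-tag, Sf21-expressed) captured on a regenerable streptavidin chip; peptide analytes flowed in 10 mM HEPES pH 7.4, 150 mM NaCl, 3 mM EDTA, 0.05% P20, 2% DMSO. kon and koff measured; affinity calculated from the rate constants.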

[2] = molecular target: T2, TNFα-induced NF-κB signal transduction pathway (TNFR1 signaling) in THP-1 cells (Homo sapiens, UniProt P19438); experiment: THP-1 Lucia NF-κB reporter cell assay, inhibition of TNFα-induced NF-κB signaling; format: cell-based; conditions: THP-1 NF-κB Lucia reporter cells, 10 ng/mL TNFα, 16-18 h, secreted luciferase; read-out: THP-1 IC50
T2 sequence (P19438 30-455): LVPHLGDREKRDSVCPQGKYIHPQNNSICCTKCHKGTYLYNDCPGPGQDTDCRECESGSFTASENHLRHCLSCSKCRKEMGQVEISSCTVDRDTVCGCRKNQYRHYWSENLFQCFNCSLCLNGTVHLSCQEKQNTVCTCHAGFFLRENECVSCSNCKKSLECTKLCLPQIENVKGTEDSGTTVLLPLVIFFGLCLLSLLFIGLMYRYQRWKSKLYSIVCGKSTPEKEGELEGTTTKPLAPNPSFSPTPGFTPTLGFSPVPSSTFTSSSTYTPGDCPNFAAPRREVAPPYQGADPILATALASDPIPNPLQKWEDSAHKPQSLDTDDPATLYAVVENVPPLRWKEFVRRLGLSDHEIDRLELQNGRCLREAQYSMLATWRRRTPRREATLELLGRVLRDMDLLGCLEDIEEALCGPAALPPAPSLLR
Outline: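 Read-out: secreted Lucia luciferase luminescence (QUANTI-Luc) from supernatant after 16-18 h, 37 °C, 10 ng/mL rhTNFα. Peptide pretreatment 1 h at 37 °C; 20,000 cells/well, selection antibiotics omitted. IC50 via 4-parameter logistic model against min/max controls.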

| SMILES | pKd [1] | pIC50 [2] |
| --- | --- | --- |
| CCCC[C@@H]1NC(=O)CSC[C@@H](C(N)=O)NC(=O)[C@H]([C@@H](C)c2c[nH]c3c(OC)cccc23)NC(=O)CN(C)C(=O)[C@H](Cc2ccc(O)cc2)NC(=O)[C@H](Cc2ccc(C(=O)O)cc2)NC(=O)[C@](C)(CO)NC(=O)[C@H](Cc2c[nH]c3c(Cl)cccc23)NC(=O)[C@H](Cc2ccncc2)NC(=O)[C@H](CC(N)=O)NC(=O)[C@H](CCC(=O)O)N(C)C(=O)[C@H](Cc2c[nH]c3ncccc23)NC(=O)[C@H](CO)NC(=O)[C@H]([C@H](C)c2ccncc2)NC1=O [SEQ ID NO. 143] ({CH2CO}-[Nle][X3]S[Trp(7-aza)][NMeE]N[4Pal][Trp(7-Cl)][αMeS][Phe(4-COOH)]Y[Sar][Trp(βS-Me,7-OMe)]C-NH2; thioether N-14) | 10.30 | 8.66 |
| CCCC[C@@H]1NC(=O)[C@@H]2CC[C@@H](C2)NC(=O)[C@H]([C@@H](C)c2c[nH]c3c(OC)cccc23)NC(=O)CN(C)C(=O)[C@H](Cc2ccc(O)cc2)NC(=O)[C@H](Cc2ccc(C(N)=O)cc2)NC(=O)[C@](C)(CO)NC(=O)[C@H](Cc2c[nH]c3c(Cl)cccc23)NC(=O)[C@H](Cc2ccncc2)NC(=O)[C@H](CC(N)=O)NC(=O)[C@H]2C[C@H](N)CN2C(=O)[C@H](Cc2c[nH]c3ccccc23)NC(=O)[C@@H]2CC[C@@H](O)CN2C(=O)[C@H](Cc2ccncc2)NC1=O [SEQ ID NO. 144] (cyclo([4Pal][Trp(7-Cl)][αMeS][Phe(4-CONH2)]Y[Sar][Trp(βS-Me,7-OMe)][X1][Nle][4Pal][Pip(5R-OH)]W[dPro(4S-NH2)]N)) | 10.00 | 9.22 |
| COc1cccc2c([C@H](C)[C@@H]3NC(=O)CN(C)C(=O)[C@H](Cc4ccc(C(=O)O)cc4)NC(=O)[C@H](Cc4ccc(C(N)=O)cc4)NC(=O)[C@](C)(CO)NC(=O)[C@H](Cc4c[nH]c5c(Cl)cccc45)NC(=O)[C@H](Cc4ccc(C(=O)O)cc4)NC(=O)[C@H](CC(N)=O)NC(=O)[C@H]4C[C@H](O)CN4C(=O)[C@H](Cc4c[nH]c5ncccc45)NC(=O)[C@@H]4CC[C@@H](O)CN4C(=O)[C@H](Cc4ccncc4)NC(=O)[C@H](COCCN)NC(=O)[C@@H]4CC[C@@H](C4)NC3=O)c[nH]c12 [SEQ ID NO. 148] (cyclo([4Pal][Pip(5R-OH)][Trp(7-aza)][dHyp]N[Phe(4-COOH)][Trp(7-Cl)][αMeS][Phe(4-CONH2)][Phe(4-COOH)][Sar][Trp(βS-Me,7-OMe)][X1]S(Ethyl(2-NH2)))) | 8.96 | 8.55 |
| COc1cccc2c([C@H](C)[C@@H]3NC(=O)CN(C)C(=O)[C@H](Cc4ccc(C(=O)O)cc4)NC(=O)[C@H](Cc4ccc(C(N)=O)cc4)NC(=O)[C@](C)(CO)NC(=O)[C@H](Cc4c[nH]c5c(C#N)cccc45)NC(=O)[C@H](Cc4ccc(C(=O)O)cc4)NC(=O)[C@H](CC(N)=O)NC(=O)[C@H]4C[C@H](O)CN4C(=O)[C@H](Cc4c[nH]c5ncccc45)NC(=O)[C@@H]4CC[C@@H](O)CN4C(=O)[C@H](Cc4ccncc4)NC(=O)[C@H](COCC4CC4)NC(=O)[C@@H]4CC[C@@H](C4)NC3=O)c[nH]c12 [SEQ ID NO. 149] (cyclo([4Pal][Pip(5R-OH)][Trp(7-aza)][dHyp]N[Phe(4-COOH)][Trp(7-CN)][αMeS][Phe(4-CONH2)][Phe(4-COOH)][Sar][Trp(βS-Me,7-OMe)][X1]S(X22))) | 9.74 | 8.89 |
| CCCC[C@@H]1NC(=O)[C@@H]2CC[C@@H](C2)NC(=O)[C@H]([C@@H](C)c2c[nH]c3c(OC)cccc23)NC(=O)CN(C)C(=O)[C@H](Cc2cccc(CC(N)=O)c2)NC(=O)[C@H](Cc2ccc(C(=O)O)cc2)NC(=O)[C@](C)(CO)NC(=O)[C@H](Cc2c[nH]c3c(Cl)cccc23)NC(=O)[C@H](Cc2ccncc2)NC(=O)[C@H](CC(N)=O)NC(=O)[C@H](CCC(=O)O)N(C)C(=O)[C@H](Cc2c[nH]c3ccccc23)NC(=O)[C@@H]2CNCCN2C(=O)[C@H](Cc2ccncc2)NC1=O [SEQ ID NO. 153] (cyclo([4Pal][Trp(7-Cl)][αMeS][Phe(4-COOH)][X29][Sar][Trp(βS-Me,7-OMe)][X1][Nle][4Pal][Pip(4-aza)]W[NMeE]N)) | 9.80 | 8.59 |
